This is an account of results in patent US20240011018A1, “MULTIPLEXED METHOD FOR ASSESSING GLOBAL OR GENOMIC LOCUS-SPECIFIC LEVELS OF CHROMATIN MODIFICATION” (Epigenica AB, priority 2020, published 2024).

The structures appear in SMILES notation.

One experiment concerns H3K27me3 in HCT116 cells. The experiment in a line: hmqChIP quantification of global H3K27me3 level after drug treatment, HCT116. It is filed as cell-based, human. The following applies: 0.5 uM/5 uM, 40 h, anti-H3K27me3 ChIP. How it is done: (§1) A highly multiplexed experiment profiling global levels of three histone modifications in 96 samples: Two different cancer cell lines (human colon cancer HCT116, human osteosarcoma U2OS) were treated with 11 different drugs at 2 concentrations each (low, high) or DMSO as a control. Two replicates each (rep1, rep2) were performed of each treatment, totaling 96 samples. For U2OS, 9000 cells were seeded per 96-well, For HCT116, 6000 cells were seeded. After 24 h, drugs were added to each well, using the concentration specified in the following table:
(§2) After further growth for 40 h, the cell number was approx. 50 000 cells per well. […]
(§3) The final libraries were sequenced twice, to test the influence of sequencing two different random set of molecules on the quantification of global levels (that only scarcely covering the genome). The first time ˜1 Mio reads were sequenced in total for the four sub-pools (3 ChIP, 1 input), approximately 250 000 per sub-pool. […] The second time at total of 25 Mio reads were collected and either all of the reads were analyzed, or only a randomly selected subset of 1 mio reads. When all reads were analyzed, it corresponds to approx. 260,416 reads per sample. Input-normalized unique read count (INRCs) using DMSO controls as reference were calculated as described in Example 2 and plotted in a heatmap with grayscale and circle size reflecting the INRC.

Experiment [1] deals with H3K27me3 in mouse embryonic stem cells. The following applies: dataset according to Kumar and Elsässer 2019; cited from earlier work.
The test system of another experiment is H3K27ac. Kind of experiment: hmqChIP quantification of global H3K27ac level after drug treatment. The following applies: HCT116 and U2OS cells, 0.5 uM/5 uM, 40 h, anti-H3K27ac ChIP. It is filed as cell-based, human. How it is done: as §1, §2, §3
The next experiment has as its system H3K27me3 in U2OS cells. The experiment in a line: hmqChIP quantification of global H3K27me3 level after drug treatment, U2OS. Type of experiment: cell-based, human. The following applies: 0.5 uM/5 uM, 40 h, anti-H3K27me3 ChIP. How it is done:
as §1, §2, §3

For `CCN(c1cc(C#CCN2CCOCC2)cc(C(=O)NCc2c(C)cc(C)[nH]c2=O)c1C)[C@H]1CC[C@H](N(C)CCOC)CC1` [EPZ011989], in the experiment with H3K27me3 in HCT116 cells, the “global H3K27me3 level (INRC relative to DMSO control)” value is recorded as “decrease H3K27me3”.

With `CCOC(=O)CCNc1cc(N2CCc3ccccc3CC2)nc(-c2ccccn2)n1` [GSK-J4], in experiment [1], the “H3K27me3 level of treated mESC used as calibration cell source” value was “increase H3K27me3 above physiologic levels”.

As for `O=C(CCCCCCC(=O)Nc1ccccc1)NO` [SAHA], the “global H3K27ac level (INRC relative to DMSO control)” value in the experiment on H3K27ac is given as “increase H3K27ac acetylation”.

As for `CC(NC(=O)c1ccccc1/N=C/c1c(O)ccc2ccccc12)c1ccccc1` (centres unmarked) [Sirtinol], the “global H3K27ac level (INRC relative to DMSO control)” value with H3K27ac is “increase H3K27ac acetylation”. Also, in the experiment on H3K27me3 in U2OS cells, the “global H3K27me3 level (INRC relative to DMSO control)” value was “decreases H3K27me3”.
